Source: patent US9914711B2 (priority 2013, dated 2018)

How the values were obtained:
[1] = test system: C. violaceum CV026; test: Measurement of IC50 of compounds having an inhibitory effect on C. violaceum quorum sensing (purple pigment absorbance at 585 nm); assay type: cell-based; conditions: Chromobacterium violaceum, CV026, read-out: IC50 of compounds having bacterial quorum sensing inhibitory activity
Description: 2. Measurement of IC50 of Compounds Having an Inhibitory Effect on C. violaceum Quorum Sensing
2.1 The wells of a 12-well plate were marked as initial concentration, 2, 4, 8, 16, 32, 64, 128, 256, DMSO group, and a blank control group from left to right and from up to bottom, respectively.
2.2 The monoclonal C. violaceum CV026 grew on LB solid plate was cultured to exponational phase in a 5 ml fresh LB liquid culture medium, 50 μl was then taken for seeding in a 5 ml LB culture medium, and was cultured until the optical density OD value was about 1.0 at 585 nm; the culture was then mixed well with LB culture medium at a ratio of 1:9 by volume (with OD of about 0.15), and was added to a 12-well plate in an amount of 2 ml/well.
2.3 The compounds preliminarily screened to have quorum sensing inhibitory activity were dissolved respectively in DMSO (at a concentration of 0.065M), and then 10 μl was taken into 10 μl DMSO solution to achieve the purpose of 2-fold dilution, and so on. Each compound was gradiently diluted to a highest fold of 256 (gradient dilution of 2, 4, 8, 16, 32, 64, 128, 256 fold).
2.4 To each well, 15 μl 1000-fold diluted inducer C6-HSL (initial concentration of 0.125M) and 8 μl compound solution at each diluted gradient was added; to DMSO control group, 8 μl DMSO was added; to a blank control group, 8 μl LB culture medium was added. Finally, it was ensured that 2 ml culture in each of the 12-well plate was mixed well.
2.5 The 12-well plate was placed in a 30° C. shaker at 130 rpm and was cultured for 10-12 h.
2.6 After the culture was finished, 1 ml culture was taken from each well and was put in a 1.5 ml EP tube and then was centrifugated at 12000 rpm for 10 mins. […] 200 μl supernatant pigment was put in a 96-well culture plate, and was measured for absorbance value at 585 nm by a Microplate Reader, […] the absorbance value and the corresponding concentration were plotted to get the IC50 value.

[2] = test system: C. violaceum CV026; test: Preliminary screening of bacterial quorum sensing agonistic / inhibitory activity on LB plate (purple stain / white circle); assay type: cell-based; conditions: for Regulatory activity (bacterial quorum sensing regulatory activity): 1 μl of 0.065M compound spotted on plate, inhibitory screen with inducer C6-HSL, 30° C., 16-18 h; for Effect on bacterial quorum sensing (summary in words): summary of the activity evaluation experiments
Description: 1.1 Preparation work: different compounds to be tested (Compounds 1-40 prepared in Example 1-40) were weighted and then were dissolved in 200 μl DMSO (dimethyl sulfoxide) to prepare a solution at a concentration of 0.065M. 5.0 mg inducer, N-hexanoyl homoserine lactone (C6-HSL, purchased from Sigma Company), was weighted and was dissolved in 200 μl DMSO (at a concentration of 0.125M), and the compounds and the inducer were stored at 4 for further use. C. violaceum CV026 (donated by Professor McLean J C from Texas State University) in LB culture medium (LB culture medium consisting of 1% (percentage by mass) tryptone, 0.5% (percentage by mass) yeast extract, 1% (percentage by mass) NaCl and water) was cultured under shaking in a shaker at 30, 200 rpm to get the culture medium for further use.
1.2 Method for preliminary screening of compounds having agonistic activity: 400 μl C. violaceum CV026 (at a bacterial concentration of 1×10^8/ml) was added to 5 ml melted semi-solid LB culture medium, and was mixed well; the mixed culture medium was poured into a solid LB plate; when the mixed culture medium was solidified on the plate, lattice was made thereon; 1 μl of the dissolved compounds to be tested (Compounds 1-40 in Examples 1-40, at a concentration of 0.065M) was spotted on the plate; when the compounds on the plate was dried in air, the plate was put in a 30° C. oven upside down and was cultured for a period of 16-18 h. If the compound to be tested has an agonistic effect on C. violaceum CV026 on the LB plate, purple stain will be induced on the LB plate. The agonistic activity of a compound is determined depending on whether purple stain is induced for C. violaceum CV026 on LB plate as well as the purple depth.
1.3 Method for preliminary screening of compounds having inhibitory activity: the inducer C6-HSL was diluted gradiently to 1000 times by means of 2-fold dilution; 15 μl diluted inducer and 400 μl C. violaceum CV026 in exponential phase (at a bacterial concentration of 1×10^8/ml) were mixed well and then were added to a 5 ml melted semi-solid LB culture medium; the mixture of inducer, C. violaceum, and semi-solid LB was poured onto a solid LB plate; when the mixture was solidified on the plate, lattice was made thereon: 1 μl of the dissolved compounds to be tested (Compounds 1-40 in Examples 1-40, at a concentration of 0.065M) was spotted on the plate; when the compounds on the plate were dried in air, the plate was put in a 30° C. oven upside down and was cultured for a period of 16-18 h. If the compound to be tested has an inhibitory effect on C. violaceum CV026 on the LB plate, white circle will appear on the LB plate. The inhibitory activity of a compound is preliminary determined depending on the size of the white circle appeared after C. violaceum CV026 was inhibited on LB plate.
It is found after preliminary screening that 22 compounds according to the invention have bacterial quorum sensing regulatory activity, and the screening result was shown in Table 1.

Row | Structure (SMILES) | IC50 [1] [µM] | Regulatory activity (bacterial quorum sensing regulatory activity) [2] | Effect on bacterial quorum sensing (summary in words) [2] | melting point [°C]
1 | CCc1ccc(C(=O)NN2CCOC2=O)cc1 [Compound 11, 4-ethyl-N-(2-oxo-oxazolidin-3-yl)benzamide] | 13.9 ± 4.21 | − | inhibitory effect on bacterial quorum sensing | 170 to 173
2 | O=C(NN1CCOC1=O)c1ccc(Br)cc1 [Compound 12, 4-bromo-N-(2-oxo-oxazolidin-3-yl)benzamide] | 7.85 ± 1.71 | ± | both an agonizing effect and an inhibitory effect | 202 to 204
3 | O=C(NN1CCOC1=O)c1ccc([N+](=O)[O-])cc1 [Compound 7, 4-nitro-N-(2-oxo-oxazolidin-3-yl)benzamide] | 18.7 ± 2.59 | − | inhibitory effect on bacterial quorum sensing | 206 to 208
